Laboratory results as given in patent publication US10214546B2, “Btk inhibitors” (MERCK SHARP & DOHME CORP., priority 2014, dated 2019).
Where two headings read alike, the source gives them in different places.

What was measured:
[1] = test system: adenosine uptake into HeLa cells; experiment: [3H]Adenosine uptake assay in HeLa cells; type: cell-based; conditions: [3H]adenosine accumulation in HeLa cells, compound range 10 μM to 0.032 nM, read-out: ADU inhibition IC50
Description: Compounds are also screened in an adenosine uptake functional cellular assay using the protocol described below:
[^3H]Adenosine Uptake Assay Methods
Adenosine uptake activity was determined by monitoring the accumulation of tritiated adenosine into HeLa cells (ATCC catalog # CCL-2) using a PMT-based radiometric detection instrument. In this assay, the potency (IC50) of each compound was determined from a ten point (1:3 serial dilution; final compound concentration range in assay from 10 µM to […]) titration curve using the following outlined procedure. To each well of a 96-well CytoStar-T scintillating microplate (Perkin Elmer Catalog # RPNQ0163), 25 000 HeLa cells in 100 µL of growth medium comprising: Minimum Essential Media (Life Technologies Catalog #11095-080)+10% (v/v) foetal bovine serum (FBS; Sigma Aldrich Catalog # F2442) was added. These cells were incubated overnight at 37° C. in a humidified atmosphere with 5% (v/v) CO2. After this time the growth medium was removed and replaced with 40 μL assay medium comprising: Hanks balanced salts solution (HBSS; Thermo Fisher Catalog # SH30268.01)+5% (v/v) FBS. Compound stock solutions in DMSO were diluted in assay medium to 2.5× final compound concentration maintaining a constant DMSO concentration of 0.25% (v/v). 40 μL of compound in assay medium was dispensed into individual wells of the Cytostar-T plates and the plates were incubated for 30 minutes under ambient laboratory conditions. Following this incubation, 20 μL of 500 nM [^3H] adenosine (American Radiolabeled Chemicals Inc. […] The amount of radiolabel accumulation was then determined using a Perkin Elmer Topcount NXT microplate reader. In brief, HeLa cells adhere to the bottom of the Cytostar-T plate, uptake of [^3H]adenosine into these cells brings the radiolabel into sufficient proximity to excite the scintillant in the base of the plates. These events are captured by single PMT, time-resolved coincidence counting. IC50 values were determined by 4 parameter robust fit of counts per second values vs. (Log10) compound concentrations.

[2] = molecular target: BTK enzyme (recombinant full-length BTK, hBTK) (Homo sapiens (Human), UniProt Q06187); experiment: BTK enzymatic activity LANCE TR-FRET assay; type: biochemical; conditions: 50 pM hBTK, 25 μM ATP, 2 μM biotin-A5-peptide; compound range 1 μM to 0.017 nM; read-out: BTK binding IC50
Description: Btk Enzyme Activity Assay Methods
BTK enzymatic activity was determined with the LANCE (Lanthanide Chelate Excite) TR-FRET (Time-resolved fluorescence resonance energy transfer) assay. […] Phosphorylation reactions were allowed to proceed for 120 minutes. […] After 60 minutes incubation with detection reagents, reaction plates were read on a PerkinElmer EnVision plate reader using standard TR-FRET protocol. […] IC50 values were determined by 4 parameter robust fit of TR-FRET ratio values vs. (Log10) compound concentrations.

BTK enzyme (recombinant full-length BTK, hBTK), sequence (Q06187 whole entry): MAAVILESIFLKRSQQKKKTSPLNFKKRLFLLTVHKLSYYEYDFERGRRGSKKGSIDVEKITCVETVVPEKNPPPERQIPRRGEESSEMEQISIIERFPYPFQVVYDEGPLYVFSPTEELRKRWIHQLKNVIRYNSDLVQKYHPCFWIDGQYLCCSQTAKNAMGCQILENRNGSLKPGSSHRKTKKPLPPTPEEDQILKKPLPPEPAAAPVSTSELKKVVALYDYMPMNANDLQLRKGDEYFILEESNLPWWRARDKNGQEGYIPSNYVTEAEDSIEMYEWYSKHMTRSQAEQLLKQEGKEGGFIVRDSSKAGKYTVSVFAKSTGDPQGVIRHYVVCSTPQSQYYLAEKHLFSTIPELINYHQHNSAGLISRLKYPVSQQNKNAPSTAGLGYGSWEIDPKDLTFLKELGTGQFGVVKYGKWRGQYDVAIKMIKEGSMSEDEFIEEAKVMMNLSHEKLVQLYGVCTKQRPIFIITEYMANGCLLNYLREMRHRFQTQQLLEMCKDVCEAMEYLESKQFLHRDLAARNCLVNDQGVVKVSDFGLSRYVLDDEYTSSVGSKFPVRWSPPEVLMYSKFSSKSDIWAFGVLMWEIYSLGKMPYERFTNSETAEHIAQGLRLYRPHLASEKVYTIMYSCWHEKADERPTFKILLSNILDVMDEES

Row | IC50 [1] [nM] | IC50 [2] [nM] | IC50 ([1]; Homo sapiens, HeLa) [nM] | Compound
1 | 2160 | 496 | – | COc1cc(C(O)(c2cccc(C(F)(F)F)c2)C(F)(F)F)ccc1-c1nc([C@@H]2CC[C@H]3CCC(=O)N3C2)n2ccnc(N)c12 (single isomer, unassigned) [Example 10]
2 | 5340 | 1.8 | – | COc1cc(C(O)(c2cccc(C(F)(F)F)c2)C(F)(F)F)ccc1-c1nc([C@@H]2CC[C@H]3CCC(=O)N3C2)n2ccnc(N)c12 (single isomer, unassigned) [Example 11]
3 | – | 65.2 | 3340 | C[C@](O)(c1ccccc1)c1ccc(-c2nc([C@@H]3CC[C@H]4CCC(=O)N4C3)n3ccnc(N)c23)cc1 [Example 1, (6R,8aS)-6-(8-amino-1-(4-((S)-1-hydroxy-1-phenylethyl)phenyl)imidazo[1,5-a]pyrazin-3-yl)hexahydroindolizin-3(2H)-one]
4 | – | 1.6 | 6350 | C[C@@](O)(c1ccccc1)c1ccc(-c2nc([C@@H]3CC[C@H]4CCC(=O)N4C3)n3ccnc(N)c23)cc1 [Example 2, (6R,8aS)-6-(8-amino-1-(4-((R)-1-hydroxy-1-phenylethyl)phenyl)imidazo[1,5-a]pyrazin-3-yl)hexahydroindolizin-3(2H)-one]
5 | – | 884 | 405 | C[C@@](O)(c1ccc(-c2nc([C@@H]3CC[C@H]4CCC(=O)N4C3)n3ccnc(N)c23)cc1)c1cccc(C(F)(F)F)c1 [Example 3, (6R,8aS)-6-(8-amino-1-(4-((R)-1-hydroxy-1-(3-(trifluoromethyl)phenyl)ethyl)phenyl)imidazo[1,5-a]pyrazin-3-yl)hexahydroindolizin-3(2H)-one]
6 | – | 0.62 | 3480 | C[C@](O)(c1ccc(-c2nc([C@@H]3CC[C@H]4CCC(=O)N4C3)n3ccnc(N)c23)cc1)c1cccc(C(F)(F)F)c1 [Example 4, (6R,8aS)-6-(8-amino-1-(4-((S)-1-hydroxy-1-(3-(trifluoromethyl)phenyl)ethyl)phenyl)imidazo[1,5-a]pyrazin-3-yl)hexahydroindolizin-3(2H)-one]
7 | – | 377 | 553 | C[C@](O)(c1ccc(-c2nc([C@@H]3CC[C@H]4CCC(=O)N4C3)n3c(Cl)cnc(N)c23)cc1)c1cccc(C(F)(F)F)c1 [Example 5, (6R,8aS)-6-(8-amino-5-chloro-1-(4-((S)-1-hydroxy-1-(3-(trifluoromethyl)phenyl)ethyl)phenyl)imidazo[1,5-a]pyrazin-3-yl)hexahydroindolizin-3(2H)-one]
8 | – | 0.76 | 1730 | C[C@@](O)(c1ccc(-c2nc([C@@H]3CC[C@H]4CCC(=O)N4C3)n3c(Cl)cnc(N)c23)cc1)c1cccc(C(F)(F)F)c1 [Example 6, (6R,8aS)-6-(8-amino-5-chloro-1-(4-((R)-1-hydroxy-1-(3-(trifluoromethyl)phenyl)ethyl)phenyl)imidazo[1,5-a]pyrazin-3-yl)hexahydroindolizin-3(2H)-one]
9 | – | 3.5 | – | CC(O)(c1ccccc1)c1ccc(-c2nc([C@@H]3CC[C@H]4CCC(=O)N4C3)n3ccnc(N)c23)cc1 (stereo partly drawn) [Example 23, (6R,8aS)-6-{8-amino-1-[4-(1-hydroxy-1-phenylethyl)phenyl]imidazol[1,5-a]pyrazin-3-yl}hexahydroindolizin-3(2H)-one]
10 | – | 792 | – | Nc1nccn2c([C@@H]3CC[C@H]4CCC(=O)N4C3)nc(-c3ccc(C(O)(c4ccc(C(F)(F)F)cc4)C(F)(F)F)cc3)c12 (stereo partly drawn) [Example 28, (6R,8aS)-6-[8-amino-1-(4-{2,2,2-trifluoro-1-hydroxy-1-[4-(trifluoromethyl)phenyl]ethyl}phenyl)imidazo [1,5-a]pyrazin-3-yl]hexahydroindolizin-3(2H)-one]
11 | – | 161 | – | Nc1nccn2c([C@@H]3CC[C@H]4CCC(=O)N4C3)nc(-c3ccc(C(O)(c4ccc(F)cc4)C(F)(F)F)cc3)c12 (stereo partly drawn) [Example 32, (6R,8aS)-6-(8-amino-1-{4-[2,2,2-trifluoro-1-(4-fluorophenyl)-1-hydroxyethyl]phenyl}imidazo[1,5-a]pyrazin-3-yl)hexahydroindolizin-3(2H)-one]
